Target: T1, humanGPR120 (Homo sapiens, UniProt Q5NUL3)
T1 construct: expressed in transfected cells
T1 sequence (Q5NUL3 1-377 isoform Q5NUL3-1 R67C/Q274H/I297T): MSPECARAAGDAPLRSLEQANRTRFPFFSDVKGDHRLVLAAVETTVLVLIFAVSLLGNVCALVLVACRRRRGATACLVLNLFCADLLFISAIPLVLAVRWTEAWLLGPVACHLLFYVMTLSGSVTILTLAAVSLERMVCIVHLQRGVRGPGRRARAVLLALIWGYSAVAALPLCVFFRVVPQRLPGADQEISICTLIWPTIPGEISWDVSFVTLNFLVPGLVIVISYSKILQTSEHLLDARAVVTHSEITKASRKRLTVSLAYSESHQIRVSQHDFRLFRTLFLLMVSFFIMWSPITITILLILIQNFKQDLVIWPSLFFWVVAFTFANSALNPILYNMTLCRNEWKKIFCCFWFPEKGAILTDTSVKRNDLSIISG
Assay: Inhibitory effect on activation (antagonistic activity): α-LA-stimulated increase in intracellular Ca2+ concentration measured by FLIPR in cells comprising GPR120
Type: cell-based

(E)-3-{3-[2-(2-nonylpyridinylamino)ethoxy]phenyl}acrylic acid [ATG-19]
antagonistic activity for GPR120 (result in words): significant antagonistic activity
